Measured values from US9593127B2, “Heterocyclylalkyne derivatives and their use as modulators of mGluR5 receptors” (RECORDATI IRELAND LTD., priority 2014, dated 2017).

What was measured:
[1] = biological target: T1, human mGlu5 receptor (CHO T-REx h-mGluR5 cells) (Homo sapiens (Human), UniProt P41594); experiment: Calcium fluorescence measurement, potentiation of mGlu5 activation at EC20 of glutamate; format: cell-based; conditions: for EC50: potentiation, agonist glutamate at EC20, read-out: EC50 nM Glutam.; for Fold Increase Glutam. / Fold Increase 1 microM Glutam.: agonist glutamate
Excerpt: (§1) Cell lines stably transfected were generated using inducible expression vectors encoding human mGlu5 receptor using the Tetracycline-Regulated Expression system (T-REx™ system, Invitrogen, Life Technologies). Human mGluR5 open reading frame (ORF), comprehensive of the stop codon, were cloned into the pcDNA4/TO/myc-His™ A vector, carrying the TetO2 sequences. The insertion site was HindIII-PstI for mGluR5 receptors. The obtained constructs were then transfected into the T-REx CHO™ cell line using the FuGENE protocol (Roche); the CHO T-REx™ cell line stably expresses the Tet repressor (from the pcDNA6/TR plasmid) under the selection of blasticidin, 10 μg/ml. Stable clones were obtained selecting with zeocine 1 mg/ml and maintaining in ULTRA CHO medium (LONZA) supplemented with dialyzed FBS, zeocin, blasticidine, at 37° C., in an atmosphere of 5% CO2. The expression of h-mGluR5 receptors was de-repressed with 1 μg/ml tetracycline for 18 h before binding experimentation, while the expression of h-mGluR5 receptors was de-repressed respectively with 3 ng/ml and 10 ng/ml tetracycline for 18 h before calcium fluorescence experimentation.
(§2) Cells were seeded into black-walled, clear-bottom, 96-well plates at a density of 80000 cell/well, in RPMI (without Phenol Red, without L-glutamine; Gibco LifeTechnologies, CA) supplemented with 10% dialyzed FBS. Following 18-h incubation with tetracycline, the cells were loaded with […] Ca^2+—sensitive fluorescent dye Fluo-4/AM (Molecular Probes) in Hanks' balanced saline solution (HBSS, Gibco LifeTechnologies, CA) with 20 mM Hepes (Sigma) and 2.5 mM probenecid (Sigma), for 1 h at 37° C. The cells were washed three times with HBSS to remove extracellular dye. Fluorescence signals were measured by using the fluorescence microplate reader Flexstation III (Molecular Devices) at sampling intervals of 1.5 s for 60 s.
(§3) The antagonist potency was determined using the EC80 of the quisqualate used as agonist and the potentiation of mGlu5 activation was determined using the EC20 of the agonist (quisqualate or glutamate). The compounds were applied 10 minutes before the application of the agonist. For binding and calcium assay studies, the compounds were dissolved in DMSO or demineralized water according to their solubility. All the reported doses were those of the corresponding salts or bases.

[2] = biological target: T1, human mGlu5 receptor (CHO T-REx h-mGluR5 cells); experiment: Radioligand binding assay at cloned mGluR5 ([3H]MPEP displacement); conditions: 4 nM [3H]MPEP, read-out: h.c. mglu R5 IC50
Excerpt: as §1
Affinity at transmembrane glutamate metabotropic mGluR5 receptor subtypes was evaluated according to the methods of Anderson (Anderson et al., J Pharmacol. Exp. Ther., (2002), Vol. 303(3), pp. 1044-51), with some modifications. Cloned mGluR5 was obtained by re-suspending CHO T-REx h-mGluR5 cells (50 μg/well) in 20 mM HEPES, 2 mM MgCl2, 2 mM CaCl2, pH 7.4, that then were incubated in a final volume of 1 ml for 60 min at 25° C. with 4 nM [^3H]MPEP in the absence or presence of competing drugs. Non-specific binding was determined in the presence of […] MPEP. The incubation was stopped by addition of cold Tris buffer pH 7.4 and rapid filtration through 0.2% polyethyleneimine pretreated Filtermat 1204-401 (Perkin Elmer) filters. The filters were then washed with cold buffer and the radioactivity retained on the filters was counted by liquid scintillation spectrometry (Betaplate 1204 BS-Wallac).
as §3
The inhibition curves of the tested compounds at native and cloned mGluR1 and mGluR5 subtypes were determined by nonlinear regression analysis using software Prism 4.0 (Graphpad, San Diego, Calif.). The IC50 values and pseudo-Hill slope coefficients were estimated by the program. The values for the inhibition constant, Ki, were calculated according to the equation Ki=IC50/(1+[L]/Kd), where [L] is the concentration of radioligand and Kd is the equilibrium dissociation constant of the radioligand-receptor complex (Cheng et al., Biochem. Pharmacol. (1973), Vol. 22, pp. 3099-3108).

[3] = biological target: T1, human mGlu5 receptor (CHO T-REx h-mGluR5 cells); experiment: Calcium fluorescence measurement, potentiation of mGlu5 activation at EC20 of quisqualate; format: cell-based
Excerpt: as §1, §2, §3

T1 sequence (P41594 21-1212): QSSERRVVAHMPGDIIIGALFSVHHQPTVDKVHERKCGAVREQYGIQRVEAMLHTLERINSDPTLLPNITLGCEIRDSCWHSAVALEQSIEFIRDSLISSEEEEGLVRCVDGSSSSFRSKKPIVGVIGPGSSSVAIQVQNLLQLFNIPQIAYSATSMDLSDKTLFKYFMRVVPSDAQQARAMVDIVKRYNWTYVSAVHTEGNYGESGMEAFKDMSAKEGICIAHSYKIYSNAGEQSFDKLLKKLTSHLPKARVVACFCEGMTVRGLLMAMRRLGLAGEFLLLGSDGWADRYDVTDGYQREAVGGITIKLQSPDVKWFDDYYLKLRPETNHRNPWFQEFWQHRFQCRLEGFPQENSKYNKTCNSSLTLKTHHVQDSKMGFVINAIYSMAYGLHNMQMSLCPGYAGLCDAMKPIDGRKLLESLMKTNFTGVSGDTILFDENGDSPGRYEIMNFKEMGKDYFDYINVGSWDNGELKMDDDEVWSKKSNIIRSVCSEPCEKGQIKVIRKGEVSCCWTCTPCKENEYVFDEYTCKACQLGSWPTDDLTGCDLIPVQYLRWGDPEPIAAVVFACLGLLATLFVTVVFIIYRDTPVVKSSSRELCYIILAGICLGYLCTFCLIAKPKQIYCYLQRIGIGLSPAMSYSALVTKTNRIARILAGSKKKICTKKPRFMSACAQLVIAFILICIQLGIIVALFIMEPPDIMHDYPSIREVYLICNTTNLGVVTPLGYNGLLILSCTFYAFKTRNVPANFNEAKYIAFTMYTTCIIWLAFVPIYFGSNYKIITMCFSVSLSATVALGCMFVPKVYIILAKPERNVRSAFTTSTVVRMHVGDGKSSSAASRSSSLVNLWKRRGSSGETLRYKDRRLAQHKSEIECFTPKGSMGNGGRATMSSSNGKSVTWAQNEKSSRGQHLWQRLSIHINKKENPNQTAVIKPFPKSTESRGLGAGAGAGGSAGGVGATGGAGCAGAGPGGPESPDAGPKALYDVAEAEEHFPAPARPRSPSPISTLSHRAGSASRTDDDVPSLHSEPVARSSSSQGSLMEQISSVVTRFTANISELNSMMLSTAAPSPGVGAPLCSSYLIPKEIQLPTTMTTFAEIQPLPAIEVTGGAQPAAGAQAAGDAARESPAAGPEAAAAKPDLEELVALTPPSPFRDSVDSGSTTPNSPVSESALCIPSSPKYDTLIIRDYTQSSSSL

Structure (SMILES)	EC50 [1] [nM]	IC50 [2] [µM]	Fold Increase Glutam. [1] [fold]	Fold Increase 1 microM Glutam. [1] [fold]	other results
Cc1cccc(C#CC2=NOC3C2CCN3C(=O)N2CCOCC2)n1 (stereo not shown) [Example 18, [3-[2-(6-methyl-2-pyridyl)ethynyl]-3a,4,5,6a-tetrahydropyrrolo[3,2-d]isoxazol-6-yl]-morpholino-methanone]	–	> 1	–	–	–
CC(C)OC(=O)N1CCC2C(C#Cc3cccc(Cl)c3)=NOC21 (stereo not shown) [Example 21, isopropyl-3-(3-chlorophenylethynyl)-3a,4,5,6a-tetrahydropyrrolo[3,2-d]isoxazole-6-carboxylate]	–	–	0	–	–
Cc1cccc(C#CC2=NOC3C2CCN3C(=O)OC(C)(C)C)n1 (stereo not shown) [Example 5, tert-butyl 3-[2-(6-methyl-2-pyridyl)ethynyl]-3a,4,5,6a-tetrahydropyrrolo[3,2-d]isoxazole-6-carboxylate]	–	0.708	–	–	Fold Inc. Quisq. ([3]; agonist quisqualate): 0 fold
O=C(N1CCOCC1)N1CCC2C(C#Cc3cccc(Cl)c3)=NOC21 (stereo not shown) [Example 6, [3-[2-(3-chlorophenyl)ethynyl]-3a,4,5,6a-tetrahydropyrrolo[3,2-d]isoxazol-6-yl]-morpholino-methanone]	95.2	0.0248	5.1	3.24	Fold Shift 1 microM Quisq. ([3]; 1 microM, agonist quisqualate): 2.7 fold; Fold Inc. Quisq. ([3]; agonist quisqualate): 3.3 fold; EC50 ([3]; potentiation, agonist quisqualate at EC20, read-out: EC50 nM Quisq.): 132 nM
Cc1cccc(C#CC2=NOC3C2CCN3C(=O)N2CCCCC2)n1 (stereo not shown) [Example 17, [3-[2-(6-methyl-2-pyridyl)ethynyl]-3a,4,5,6a-tetrahydropyrrolo[3,2-d]isoxazol-6-yl]-(1-piperidyl)methanone]	–	> 1	–	–	Fold Inc. Quisq. ([3]; agonist quisqualate): 1.27 fold
CON(C)C(=O)N1CCC2C(C#Cc3cccc(C)n3)=NOC21 (stereo not shown) [Example 19, N-methoxy-N-methyl-3-[2-(6-methyl-2-pyridyl)ethynyl]-3a,4,5,6a-tetrahydropyrrolo[3,2-d]isoxazole-6-carboxamide]	–	0.239	–	–	–
O=C(OCC1CC1)N1CCC2C(C#Cc3cccc(Cl)c3)=NOC21 (stereo not shown) [Example 22, cyclopropylmethyl-3-(3-chlorophenylethynyl)-3a,4,5,6a-tetrahydropyrrolo[3,2-d]isoxazole-6-carboxylate]	777	–	4.7	3.11	–
CCN(C(=O)N1CCC2C(C#Cc3cccc(Cl)c3)=NOC21)C(C)C (stereo not shown) [Example 4, 3-[2-(3-chlorophenyl)ethynyl]-N-ethyl-N-isopropyl-3a,4,5,6a-tetrahydropyrrolo[3,2-d]isoxazole-6-carboxamide]	–	0.00699	–	–	–
CCOC(=O)N1CCC2C(C#Cc3cccc(C)n3)=NOC21 (stereo not shown) [Example 20, ethyl 3-[2-(6-methyl-2-pyridyl)ethynyl]-3a,4,5,6a-tetrahydropyrrolo[3,2-d]isoxazole-6-carboxylate]	–	> 1	–	–	Fold Inc. Quisq. ([3]; agonist quisqualate): 0 fold
CCOC(=O)N1CCC2C(C#Cc3cccc(C)c3)=NOC21 (stereo not shown) [Example 16, ethyl 3-[2-(m-tolyl)ethynyl]-3a,4,5,6a-tetrahydropyrrolo[3,2-d]isoxazole-6-carboxylate]	–	0.152	–	–	–
Cc1cccc(C#CC2=NOC3C2CCN3C(=O)N2CCCCC2)c1 (stereo not shown) [Example 12, [3-[2-(m-tolyl)ethynyl]-3a,4,5,6a-tetrahydropyrrolo[3,2-d]isoxazol-6-yl]-(1-piperidyl)methanone]	–	0.0106	–	–	–
O=C(OC1CCCC1)N1CCC2C(C#Cc3cccc(Cl)c3)=NOC21 (stereo not shown) [Example 23, cyclopentyl-3-(3-chlorophenylethynyl)-3a,4,5,6a-tetrahydropyrrolo[3,2-d]isoxazole-6-carboxylate]	144	–	–	–	–

Second part, led by results:

EC50 [1] [nM]	IC50 [2] [µM]	Fold Increase Glutam. [1] [fold]	Fold Increase 1 microM Glutam. [1] [fold]	Structure (SMILES)	other results
542	–	–	–	CC(C)CCOC(=O)N1CCC2C(C#Cc3cccc(Cl)c3)=NOC21 (stereo not shown) [Example 34, 3-methylbutyl-3-(3-chlorophenylethynyl)-3a,4,5,6a-tetrahydropyrrolo[3,2-d]isoxazole-6-carboxylate]	–
–	–	0	–	O=C(Nc1cccnc1)N1CCC2C(C#Cc3cccc(Cl)c3)=NOC21 (stereo not shown) [Example 36, 3-(3-chlorophenylethynyl)-N-(pyridin-3-yl)-3a,4,5,6a-tetrahydropyrrolo[3,2-d]isoxazole-6-carboxamide]	–
54.6	–	5.09	2.65	CC(C)(C)NC(=O)N1CCC2C(C#Cc3cccc(Cl)c3)=NOC21 (stereo not shown) [Example 26, N-t-butyl-3-(3-chlorophenylethynyl)-3a,4,5,6a-tetrahydropyrrolo[3,2-d]isoxazole-6-carboxamide]	–
108	–	3.69	3.95	O=C(C1CCCC1)N1CCC2C(C#Cc3cccc(Cl)c3)=NOC21 (stereo not shown) [Example 30, 3-(3-chlorophenylethynyl)-3a,4,5,6a-tetrahydropyrrolo[3,2-d]isoxazol-6-yl-(cyclopentyl)methanone]	–
–	–	0	–	O=C(c1ccoc1)N1CCC2C(C#Cc3cccc(Cl)c3)=NOC21 (stereo not shown) [Example 28]	–
1100	–	2.92	1.92	CN1CCN(C(=O)N2CCC3C(C#Cc4cccc(Cl)c4)=NOC32)CC1 (stereo not shown) [Example 32, 3-(3-chlorophenylethynyl)-3a,4,5,6a-tetrahydropyrrolo[3,2-d]isoxazol-6-yl-(4-methylpiperazin-1-yl)methanone]	–
33.9	–	5.8	8.48	CC(C)(C)COC(=O)N1CCC2C(C#Cc3cccc(Cl)c3)=NOC21 (stereo not shown) [Example 24, 2,2-dimethylpropyl-3-(3-chlorophenylethynyl)-3a,4,5,6a-tetrahydropvrrolo[3,2-d]isoxazole-6-carboxylate]	–
–	–	0	–	Cc1ccc(C(=O)N2CCC3C(C#Cc4cccc(Cl)c4)=NOC32)o1 (stereo not shown) [Example 29, 3-(3-chlorophenylethynyl)-3a,4,5,6a-tetrahydropyrrolo[3,2-d]isoxazol-6-yl-(5-methylfuran-2-yl)methanone]	–
96.9	–	5.11	4.08	O=C(NC1CCCC1)N1CCC2C(C#Cc3cccc(Cl)c3)=NOC21 (stereo not shown) [Example 27, 3-(3-chlorophenylethynyl)-N-cyclopentyl-3a,4,5,6a-tetrahydropyrrolo[3,2-d]isoxazole-6-carboxamide]	–
–	–	0	–	CC(C)NC(=O)N1CCC2C(C#Cc3cccc(Cl)c3)=NOC21 (stereo not shown) [Example 25, 3-(3-chlorophenylethynyl)-N-(propan-2-yl)-3a,4,5,6a-tetrahydropyrrolo[3,2-d]isoxazole-6-carboxamide]	–
301	–	5.29	2.14	O=C(C1CCOCC1)N1CCC2C(C#Cc3cccc(Cl)c3)=NOC21 (stereo not shown) [Example 31, 3-(3-chlorophenylethynyl)-3a,4,5,6a-tetrahydropyrro[3,5,6a-tetrahdrorrolo3,2-d]oxazol-6-yl-(oxan-4-yl)methanone]	–
